Data from paper PMC3648604 (Antiviral research, 2013).

Molecular target: NA activity of the H5N1 influenza viruses (Influenza A virus (H5N1), UniProt Q6DPL2)
Format: biochemical, human and avian HP H5N1 influenza viruses

Chain of NA activity of the H5N1 influenza viruses (Q6DPL2 whole entry, looked up): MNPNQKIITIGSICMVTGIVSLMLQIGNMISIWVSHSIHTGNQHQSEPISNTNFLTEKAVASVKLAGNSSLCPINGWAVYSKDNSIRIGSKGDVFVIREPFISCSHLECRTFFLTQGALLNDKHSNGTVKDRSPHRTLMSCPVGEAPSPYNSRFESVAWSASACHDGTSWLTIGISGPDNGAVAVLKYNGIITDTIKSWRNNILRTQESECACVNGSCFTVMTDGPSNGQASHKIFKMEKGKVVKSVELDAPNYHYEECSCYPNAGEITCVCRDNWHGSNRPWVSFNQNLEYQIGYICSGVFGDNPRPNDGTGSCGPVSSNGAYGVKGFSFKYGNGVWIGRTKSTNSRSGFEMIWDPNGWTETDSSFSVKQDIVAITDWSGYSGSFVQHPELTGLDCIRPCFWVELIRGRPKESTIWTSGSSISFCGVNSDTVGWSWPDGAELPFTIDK

Structure (SMILES): CC(=O)N[C@H]1[C@H]([C@H](O)[C@H](O)CO)OC(C(=O)O)=C[C@@H]1N=C(N)N [Zanamivir, 4-guanidino-Neu5Ac2en]
- susceptibility in phenotypic fluorescence-based assay: fully susceptible
